# Experimental data as given in ChEMBL document CHEMBL1131995, “Synthesis and pharmacological profile of 1-aryl-3-substituted pyrrolo[3,2-c]quinolines” (Bioorg Med Chem Lett, 1999).
# Experiments:
# [1] = target: Potassium-transporting ATPase (Oryctolagus cuniculus); test: Compound was tested in vitro for H+/K+ ATPase activity in rabbit stomach preparations
# [2] = test system: Rattus norvegicus; test: Compound was tested in vivo for gastric antisecretory activity after 5 hr of pylorus ligation of SD rat; assay type: functional; settings: Stomach
IC50 [1] [µM],SMILES,ED50 [2] [mg/kg]
4.8,CCc1cn(-c2ccc(O)cc2C)c2c1cnc1c(OC)cccc12,59
100,COc1cccc2c1ncc1c(CO)cn(-c3ccccc3C)c12,–
3.4,COc1cccc2c1ncc1c(C)cn(-c3ccc(OC(C)=O)cc3C)c12,47
> 100,COc1cccc2c1ncc1c(CCO)cn(-c3ccc(F)cc3C)c12,–
17,COc1cccc2c1ncc1c(C(C)C)cn(-c3ccccc3C)c12,90
5.7,CCc1cn(-c2ccc(F)cc2C)c2c1cnc1c(OC)cccc12,13
4.8,Cc1ccccc1-n1cc(C)c2cnc3c(O)cccc3c21,58
18,CCCC(=O)c1cnc2c(OC)cccc2c1Nc1ccccc1C,20
> 100,Cc1ccccc1-n1cc(C)c2cnc3c(OC(F)(F)F)cccc3c21,–
14,COc1cccc2c1ncc1c(C)cn(-c3ccc(F)cc3C)c12,10
8.2,COc1cccc2c1ncc1c(C)cn(-c3ccccc3C)c12,13
> 100,COc1cccc2c1nc(C)c1c(C)cn(-c3ccccc3C)c12,–
80,COc1cccc2c1ncc1c(CCO)cn(-c3ccccc3C)c12,–
72,COc1cccc2c1nc(C)c1c(C)cn(-c3ccc(F)cc3C)c12,–
7.2,COc1cccc2c1ncc1c(C(C)C)cn(-c3ccc(O)cc3C)c12,49
> 100,COc1cccc2c1ncc1c(CO)cn(-c3ccc(F)cc3C)c12,–
–,COc1ccc2[nH]c([S+]([O-])Cc3ncc(C)c(OC)c3C)nc2c1 (stereo unspecified) [OMEPRAZOLE],3.2
